Data from patent publication US20240124545A1, “COMPOSITIONS AND METHODS RELATING TO THE TREATMENT OF DISEASES” (ILC THERAPEUTICS LIMITED, priority 2021, published 2024).
“And” between values parts separate entries of the source, which are not always exact repeats. Identical values can stand only once. Like-named read-outs stand apart in the source and are kept apart here.

Columns and labels:
HIV-1 LAI [1] = test: HIV-1 LAI infectivity assay with β-galactosidase readout (Experiment 5); assay type: cell-based, human immunodeficiency virus type 1 (HIV-1) LAI strain; settings: for HIV infection blocked by control antiviral: 0.5 μM
HIV-1 LAI [2] = settings: for HIV Infectivity in HeLa CD4 βgal cells (β-gal units) - antiviral control / HIV Infectivity in HeLa CD4 βgal cells, percentage of vehicle - antiviral control: single data point
in vitro [3] = settings: human, uninfected HeLa-CD4-βgal cells
[4] = XTT viability (cytotoxicity) assay, uninfected HeLa-CD4-βgal cells (Experiment 4); settings: human, uninfected HeLa-CD4-βgal cells
in vitro [5] = settings: human, uninfected HeLa-CD4-βgal cells; remark: listed apart in the source

Substance: enfuvirtide
- block of HIV infection by control inhibitor (HIV-1 LAI [1]): completely blocked HIV infection
- HIV infection blocked by control antiviral (HIV-1 LAI [1]): ~100%
- HIV infection blocked by control antiviral (HIV-1 LAI [1]; listed as T20): over 99%
- HIV-1 Infectivity in HeLa-CD4-βgal cells (% vehicle) (HIV-1 LAI [1]; control antiviral 0.5 μM, duplicate data points): 0.0 % vehicle
- HIV Infectivity in HeLa CD4 βgal cells (β-galactosidase units) (HIV-1 LAI [1]; control antiviral 0.5 μM, individual values): 3,953 RLU and 3,657 RLU
- HIV Infectivity in HeLa CD4 βgal cells (β-galactosidase units) (HIV-1 LAI [2]): 3,399 RLU and 4,452 RLU
- HIV Infectivity in HeLa-CD4-βgal cells (% vehicle) (HIV-1 LAI [2]): 0.1 % vehicle
- HIV Infectivity in HeLa CD4 βgal cells (β-gal units) - antiviral control (HIV-1 LAI [2]; 0.00005 μM): 1,159,781 RLU
- HIV Infectivity in HeLa CD4 βgal cells, percentage of vehicle - antiviral control (HIV-1 LAI [2]; 0.00005 μM): 102.2 % vehicle
- HIV Infectivity in HeLa CD4 βgal cells (β-gal units) - antiviral control (HIV-1 LAI [2]; 0.0003 μM): 1,083,305 RLU
- HIV Infectivity in HeLa CD4 βgal cells, percentage of vehicle - antiviral control (HIV-1 LAI [2]; 0.0003 μM): 95.4 % vehicle
- HIV Infectivity in HeLa CD4 βgal cells (β-gal units) - antiviral control (HIV-1 LAI [2]; 0.001 μM): 1,061,348 RLU
- HIV Infectivity in HeLa CD4 βgal cells, percentage of vehicle - antiviral control (HIV-1 LAI [2]; 0.001 μM): 93.5 % vehicle
- HIV Infectivity in HeLa CD4 βgal cells (β-gal units) - antiviral control (HIV-1 LAI [2]; 0.006 μM): 518,832 RLU
- HIV Infectivity in HeLa CD4 βgal cells, percentage of vehicle - antiviral control (HIV-1 LAI [2]; 0.006 μM): 45.5 % vehicle
- HIV Infectivity in HeLa CD4 βgal cells (β-gal units) - antiviral control (HIV-1 LAI [2]; 0.03 μM): 73,650 RLU
- HIV Infectivity in HeLa CD4 βgal cells, percentage of vehicle - antiviral control (HIV-1 LAI [2]; 0.03 μM): 6.2 % vehicle
- HIV Infectivity in HeLa CD4 βgal cells (β-gal units) - antiviral control (HIV-1 LAI [2]; 0.2 μM): 19,736 RLU
- HIV Infectivity in HeLa CD4 βgal cells, percentage of vehicle - antiviral control (HIV-1 LAI [2]; 0.2 μM): 1.5 % vehicle
- HIV infection blocked by control antivirals (HIV-1 LAI [2]; 0.5 μM): ~100%
- HIV Infectivity in HeLa CD4 βgal cells (β-gal units) - antiviral control (HIV-1 LAI [2]; 0.8 μM): 2,604 RLU
- HIV Infectivity in HeLa CD4 βgal cells, percentage of vehicle - antiviral control (HIV-1 LAI [2]; 0.8 μM): 0.0 % vehicle
- HIV Infectivity in HeLa CD4 βgal cells (β-gal units) - antiviral control (HIV-1 LAI [2]; 4.0 μM): 1,950 RLU
- HIV Infectivity in HeLa CD4 βgal cells, percentage of vehicle - antiviral control (HIV-1 LAI [2]; 4.0 μM): −0.1 % vehicle
- HIV Infectivity in HeLa CD4 βgal cells (β-gal units) - antiviral control (HIV-1 LAI [2]; 20 μM): 1,538 RLU
- HIV Infectivity in HeLa CD4 βgal cells, percentage of vehicle - antiviral control (HIV-1 LAI [2]; 20 μM): −0.1 % vehicle
- viability at 48 h, 5e-05 µM (in vitro [3]): 87.9%
- viability at 48 h, 0.0003 µM (in vitro [3]): 87.4%
- viability at 48 h, 0.001 µM (in vitro [3]): 81.4%
- viability at 48 h, 0.006 µM (in vitro [3]): 83.7%
- viability at 48 h, 0.03 µM (in vitro [3]): 79.6%
- viability at 48 h, 0.2 µM (in vitro [3]): 82.5%
- viability at 48 h, 0.8 µM (in vitro [3]): 83.8%
- viability at 48 h, 4 µM (in vitro [3]): 74.4%
- viability at 48 h, 20 µM (in vitro [3]): 57.1%
- CC50 at 48 h [4]: > 20 µM
- viability at 48 h, 0.5 µM (in vitro [5]): 93.1 ± 2.3%
- loss of cell viability with control inhibitor (HeLa-CD4-βgal cells): minimal loss of cell viability
